According to paper PMC7445415 (2020):

Key:
[1] = system: poly(A)-poly(U) (RNA, polymer) A/U; assay: UV melting, 260 nm; details: Na+ (sodium cacodylate, I = 0.05 M); cacodylate pH 5.0; r = [NDI]/[polynucleotide] = 0.3; per base
[2] = system: poly(dA-dT)2 (DNA, polymer) AT; assay: UV melting, 260 nm; details: Na+ (sodium cacodylate, I = 0.05 M); cacodylate pH 5.0; r = [NDI]/[polynucleotide] = 0.3; per base
[3] = system: poly(A)-poly(U) (RNA, polymer) A/U; assay: ITC, one set of sites; details: Na+ (sodium cacodylate, I = 0.05 M); cacodylate pH 5.0, 298 K (293 K in Experimental); n fixed 0.2; polynucleotide as nucleobases; per base
[4] = system: poly(dA-dT)2 (DNA, polymer) AT; assay: ITC, one set of sites; details: Na+ (sodium cacodylate, I = 0.05 M); cacodylate pH 5.0, 298 K (293 K in Experimental); n fixed 0.2; polynucleotide as nucleobases; per base
[5] = system: poly(dG-dC)2 (DNA, polymer) GC; assay: ITC, one set of sites; details: Na+ (sodium cacodylate, I = 0.05 M); cacodylate pH 5.0, 298 K (293 K in Experimental); n fixed 0.2; polynucleotide as nucleobases; per base
[6] = system: poly(A)-poly(U) (RNA, polymer) A/U; assay: fluorescence titration, Scatchard fit; details: Na+ (sodium cacodylate, I = 0.05 M); cacodylate pH 5.0, 25 °C; 1 µM compound; n fixed 0.2; polynucleotide as nucleobases; per base
[7] = system: poly(dA-dT)2 (DNA, polymer) AT; assay: fluorescence titration, Scatchard fit; details: Na+ (sodium cacodylate, I = 0.05 M); cacodylate pH 5.0, 25 °C; 1 µM compound; n fixed 0.2; polynucleotide as nucleobases; per base
[8] = system: poly(dG-dC)2 (DNA, polymer) GC; assay: fluorescence titration, Scatchard fit; details: Na+ (sodium cacodylate, I = 0.05 M); cacodylate pH 5.0, 25 °C; 1 µM compound; n fixed 0.2; polynucleotide as nucleobases; per base

∆Tm [1]	∆Tm [2]	logKs [3]	logKs [4]	logKs [5]	logKs [6]	logKs [7]	logKs [8]	Structure (SMILES)
+17.5 ± 0.5 °C	+21.6 ± 0.5 °C	5.9	6.3	6.7	6.0	6.0	7.2	C[N+](C)(C)CCCN1C(=O)c2cc(NC[C@H](N)C(=O)O)c3c4c(cc(Cl)c(c24)C1=O)C(=O)N(CCC[N+](C)(C)C)C3=O
+25.1 ± 0.5 °C	+28.2 ± 0.5 °C	6.6	6.8	6.7	6.4	6.1	6.6	C[N+](C)(C)CCCN1C(=O)c2cc(NCCCC[C@H](N)C(=O)O)c3c4c(cc(Cl)c(c24)C1=O)C(=O)N(CCC[N+](C)(C)C)C3=O
+30.3 ± 0.5 °C	+35.4 ± 0.5 °C	6.7	6.4	6.5	6.2	6.6	6.4	C[N+](C)(C)CCCN1C(=O)c2cc(NCC[N+](C)(C)C)c3c4c(cc(Cl)c(c24)C1=O)C(=O)N(CCC[N+](C)(C)C)C3=O
